# Measured values: patent US11814366B2, “Antiviral compounds and use thereof” (UNIVERSITA DEGLI STUDI DI SIENA, priority 2018, dated 2023)
# Entries after “also recorded” stand apart in the source; their conditions may differ.
# What was measured:
# HSV-2 [1] = assay: Binding of virus to cell (ELISA, immunofluorescence); type: cell-based, Herpes 2 virus (HSV-2); conditions: 10 μM, HSV-2, Vero cells
# Description: Vero Cells were plated in 96 well plates. The following day 10 μM of compound 15b in DMSO and HSV-2 (MOI 10 pfu/cell) were incubated for 1 h at 37° C. and subsequently added on cells for 2 hours at 4° C. Cells were then fixed with 4% paraformaldehyde, air dried, and blocked with 5% bovine serum albumin (BSA) in phosphate-buffered saline (PBS)-Tween. Binding of virus to vero cells was detected using the polyclonal HSV-2 antibody (Dako, Denmark) (diluted 1:250) incubated for 1 h at room temperature, washed three times with PBS-Tween, and incubated for 1 h at 37° C. with anti-rabbit conjugated to horseradish peroxidase (1:500). At the end of incubation, plates were washed three times with PBS-Tween, ABTS[2,2-azinobis(3-ethyl benz thiazoline sulfonic acid)] (A1888 SIGMA ALDRICH) substrate was added for 30 minutes (Thermo Scientific, Rockford, IL), and the absorbance at 405 nm was read.
# Vero cells were pre-plated on coverslips and the following day the binding or entry protocol described above was applied. […] Rhodamine conjugated anti-rabbit IgG (Santa Cruz) was then added on cells for 1 h at 37° C. following 3 washes coverslips were mounted on microscope glasses and observed with Zeiss LSM510 fluorescence microscope (Zeiss, Oberkochen, Germany) and images were acquired (FIG. 3A, 3B).
# [2] = Lipoperoxidation test (TBA assay)
# Description: To evaluate the lipid oxidation capability of 15b, a lipoperoxidation test was carried out.
# The effect of 15b was evaluated toward the oxidation of linoleic acid, incorporated in DPPC liposomes, using TBA assay. The assay is based on the reactivity of malondialdehyde (MDA), a colorless end-product of degradation, with 2-thiobarbituric acid (TBA) to produce a pink adduct (TBA-MDA-TBA) that absorbs at 535 nm. […] MDA was detected spectrophotometrically according to methods described in literature (Boon-Huat Bay, Yuan-Kun Lee, Benny Kwong-Huat Tan, Eng-Ang Ling, Lipid peroxidative stress and antioxidative enzymes in brains of milk-supplemented rats, Neuroscience Letters 277 (1999) 127-130).
# 15b was incubated at 37° C. for 2 h with a 0.5% linoleic acid containing liposome aqueous dispersion (Cagno, V.; Tintori, C.; Civra, A.; Cavalli, R.; Tiberi, M.; Botta, L.; Brai, A.; Poli, G.; Tapparel, C.; Lembo, D.; et al. Novel Broad Spectrum Virucidal Molecules against Enveloped Viruses. 2018). […] The organic supernatant was evaluated by spectrophotometry.
# The calibration curve of TBA-MDA-TBA complex was obtained using a MDA precursor 1,1,3,3-tetraethoxypropane. […] The solutions were subjected to TBA assay and analyzed at spectrophotometer. […]
# HSV-1 = HSV-1 plaque reduction assay on Vero cells; type: cell-based, Herpes 1 virus (HSV-1); conditions: Human alphaherpesvirus 1, Vero
# VSV = assay: microbe, parasite or virus in culture; type: cell-based, Vesicular Stomatitis Virus (VSV); conditions: Vesicular stomatitis virus, Vero
# Cytotoxicity, XTT test = conditions: human
# HIV Strain NL4-3 = assay: HIV-1 inhibition assay, strain NL4-3, TZM-bl cells, CPRG readout; type: cell-based; conditions: Human immunodeficiency virus 1, NL43, virus pretreated 1 h at 37° C. with compound
# Description: The human TZM-bl indicator cell line (obtained from the NIH AIDS reagents program, cat. Nr 8129, www.aidsreagent.org) was maintained at 37° C. and 5% CO2 in Dulbecco's modified Eagle's medium (DMEM) medium containing 10% fetal bovine serum, 50 μg/ml penicillin, and 50 μg/ml streptomycin. The HIV-1 laboratory strains NL (AD8) (NIH AIDS reagents program, cat. Nr, 11346) and NL4.3 (NIH AIDS reagents program, cat. Nr. 114) were titrated as previously reported by Tiberi et al (2014). Briefly, serial 5-fold dilutions of each virus were made in quadruplicate wells in 96-well culture plates, in a total volume of 100 μl of growth medium (DMEM), for a total of 8 dilution steps. Freshly trypsinized cells (20,000 cells in 100 μl of growth medium containing 75 μg/mL DEAE-dextran) were added to each well, and the plates were incubated at 37° C. in a humidified 5% CO2-95% air environment. After 48 h of incubation, the medium was removed and viral infection was quantified using a β-galactosidase (CPRG) assay (Roche). Twenty thousand TZM-bl cells/well were seeded in 96-well plates in complete DMEM supplemented with 30 μg/ml DEAE-dextran (Sigma-Aldrich). Three hundred times the 50% tissue culture infective dose (TCID50)/ml of each strain was pretreated for 1 h at 37° C. with six serial dilutions (10000 nM, 2000 nM, 400 nM, 80 nM, 16 nM, 3.2 nM) and then added to the cells. Vehicle (0.1% dimethyl sulfoxide [DMSO])-treated cells served as a negative control. […] After 2 days, viral infection was quantified using a CPRG assay (Roche cat nr 11379119103). The inhibitory curves were fitted by nonlinear regression, allowing for the calculation of the 50% effective concentration (EC50) using the Prism software. To evaluate the cell toxicity of the compounds, the metabolic XTT [2,3-bis-(2-methoxy-4-nitro-5-sulfophenyl)-2H-tetrazolium-5-carboxanilide] test (Sigma-Aldrich) was performed according to the manufacturer's instructions.
# [3] = Cell viability (MTS) assay, HELF cells; type: cell-based; conditions: human, conditions of the HCMV assay
# Description: (§1) Cell viability was measured using the MITS [3-(4,5-dimethylthiazol-2-yl)-5-(3 carboxy methoxy phenyl)-2-(4-sulfophenyl)-2H-tetrazolium] assay. Cell cultures were seeded in 96-well plates and were incubated with different concentrations of compounds of the invention in triplicate under the same experimental conditions described for the antiviral assays. Cell viability was determined using the CellTiter 96 Proliferation Assay Kit (Promega, Madison, WI, USA) according to the manufacturer's instructions. Absorbances were measured using a Microplate Reader (Model 680, BIORAD) at 490 nm. The effect on cell viability at different concentrations of the compound was expressed as a percentage, by comparing absorbances of treated cells with those of cells incubated with culture medium and equal volumes of vehicle. The 50% cytotoxic concentrations (CC50) and 95% confidence intervals (CIs) were determined using Prism software (Graph-Pad Software, San Diego, CA).
# [4] = Cell viability (MTS) assay, Huh-7 cells; type: cell-based; conditions: human, conditions of the DENV-2 assay (Table 6)
# Description: as §1
# [5] = Cell viability (MTS) assay, Hep-2 cells; type: cell-based; conditions: human, conditions of the RSV assay
# Description: as §1
# ZIKAV = assay: ZIKA virus plaque reduction assay on Vero cells; type: cell-based, Zika virus (PRVABC59)
# HSV-2 [6] = assay: During infection assay, HSV-2 on Vero cells without preincubation; type: cell-based, Herpes 2 virus (HSV-2); conditions: Human alphaherpesvirus 2; HSV-2, Vero cells, no preincubation of compound and virus; read-out: EC50 in during infection (DI) assay
# Description: During infection cells were subjected to the same experiment described above for the evaluation of HSV inhibition without the preincubation between compounds and virus.
# in vitro = conditions: dog
compound,measurement,setting,value
"O=C1NC(=S)N(CCc2ccccc2)C(=O)/C1=C\c1ccc(-c2ccc(C(=O)O)c(O)c2)[nH]1 [Compound 15b, (Z)-4-(5-((4,6-dioxo-1-phenethyl-2-thioxotetrahydropyrimidin-5(2H)-ylidene)methyl)-1H-pyrrol-2-yl)-2-hydroxybenzoic Acid]",viral binding / percentage of bound virus,HSV-2 [1],not impairing viral binding; also recorded: the same
same,lipid oxidation capability,"[2]; 37° C. for 2 h, 0.5% linoleic acid containing liposomes, MDA readout",able to oxidize polyunsaturated fatty acids
same,oxidation of linoleic acid with tocopherol added,[2]; with 0.05% w/w (±)-α-tocopherol as antioxidant,reduced the oxidation of linoleic acid
same,EC50,HSV-1,0.454 µM
same,EC90,HSV-1,3.72 µM
same,EC50,VSV,0.144 µM
same,EC90,VSV,2.17 µM
same,CC50,"Cytotoxicity, XTT test",> 20 µM
same,EC50,HIV Strain NL4-3,0.064 µM
same,CC50,[3],36.3 µM
same,CC50,[4],7.9 µM
same,CC50,[5],241 µM
same,SI selectivity index,"ZIKAV; ZIKAV, CC50 divided by EC50",>2563
same,EC50,"ZIKAV; Zika virus, Vero, ZIKAV infected cells",0.0433 µM
same,EC50,HSV-2 [6],7.89 µM
same,CC50,in vitro,> 300 µM
